Laboratory results taken from US20060041144A1 (priority 2002, published 2006).

How the values were obtained:
[1] = test system: Plasmopara viticola; experiment: Preventive foliar spray test on grape inoculated with Plasmopara viticola zoosporangia (Test Examples 3 and 4); format: in vivo; settings: grape (variety: Berry A), flowable diluted to 200 ppm, foliar spray before inoculation, observed after 1 day at 23° C. plus 6 days in green house; Test Example 4
Procedure: Additionally, the control effect was evaluated by visually observing the area of a lesion on a sample plant in investigation and comparing the area of a lesion on a non-treatment plant and the area of a lesion on a treated plant with the compound of the present invention.
Sand loam was compacted in a plastic pot, and a grape (variety: Berry A) was seeded and grown in a green house for 40 days. The compounds of the present invention (I-1), (I-2), (I-6) to (I-12), (II-1), (III-1) and (IV-1) were formulated to flowable according to Formulation Example 6, then, diluted with water to provide given concentration of 200 ppm, and these diluted solutions were sprayed onto stems and leaves so as to give sufficient adhesion on the surface of grape leaves. After spraying, the liquid on the stem was air-dried, and a suspension of zoosporangiua of Plasmopara viticola (about 10,000 zoosporangiua were contained in 1 ml of the suspension) was inoculated by spraying. The amount of the sprayed suspension was about 2 ml for one plant. After inoculation, the plant was first grown for one day at 23° C. under 90% or more humidity, then further grown for 6 days in the green house, which was 24° C. in daytime and 20° C. in night-time.
Then, the areas of a lesion of the plants were obserbed. […]

[2] = test system: Phytophthora infestans; format: in vivo; settings: tomato (variety: Ponterosa), flowable diluted to 200 ppm, foliar spray before inoculation, observed after 1 day at 23° C. plus 4 days in green house; Test Example 2

## C#CCOC(C(=O)Nc1cccnc1-c1ccc(OC)c(OC)c1)c1ccc(Cl)cc1 (stereo not drawn) [I-1, N-(2-(3,4-dimethoxyphenyl)pyridine-3-yl)-2-(2-propynyloxy)-2-(4-chlorophenyl)acetamide]
other
  melting point: 125.2 °C

## COc1ccc(-c2ncccc2NC(=O)C(O)c2ccc(C)cc2)cc1OC (stereo not drawn) [I-4, N-{2-(3,4-dimethoxyphenyl)pyridine-3-yl}-2-hydroxy-2-(4-methylphenyl)acetamide]
[1]
  lesion area on treated plants relative to the lesion area on a non-treatment plant: not more than 10%

## COc1ccc(-c2ncccc2NC(=O)C(=C(Cl)Cl)c2ccc(Cl)cc2)cc1OC [I-11, N-(2-(3,4-dimethoxyphenyl)-pyridine-3-yl)-2-(chlorophenyl)-3,3-dichloroacrylamide]
[2]
  lesion area on treated plants relative to the lesion area on a non-treatment plant: not more than 10%
